Tested on: BJ fibroblasts
Experiment: Feeder-free reprogramming of BJ fibroblasts to iPSCs on MATRIGEL GFR matrix (Example 11)
Type: cell-based, human
Details: Day 17
Experimental: In EXAMPLE 11 embodiments, each in vitro-synthesized pseudouridine-containing ssRNA (i.e., synthesized using ΨTP in place of UTP in the IVT reaction) that encoded an iPSC induction factor [e.g., OCT4, SOX2, KLF4, LIN28, and either cMYC or cMYC(T58A)] or other pseudo-uridine-containing ssRNAs transfected together with the iPSC induction factors was treated with RNase III with 1 mM Mg(OAc)2 prior to capping and tailing of the ssRNA. In this EXAMPLE 11, the RNAse III treatment reactions also contained 0.8 U/microliter SCRIPTGUARD™ RNase inhibitor (CELLSCRIPT, INC.).
Prior to use for reprogramming, BJ fibroblasts (ATCC) were plated 5×10^4 cells per well on 6-well tissue culture plates coated with 83 ng per well of MATRIGEL™ GFR matrix (BD Biosciences, San Jose, Calif.) in Advanced MEM (Invitrogen, Carlsbad, Calif.) supplemented with 10% FBS (Fisher) and 2 mM GLUTAMAX™-I (Invitrogen, Carlsbad, Calif.), a minimum essential medium (MEM) useful for growth of fibroblast cells.
On the following day, the medium was changed to a “Feeder-free Reprogramming Medium” developed by the present applicants. This Feeder-free Reprogramming Medium was composed of Dulbecco's modified Eagle medium with nutrient mixture F-12 (DMEM/F12; (DMEM/F12; Invitrogen, Carlsbad, Calif.) supplemented with 20% KNOCKOUT™ serum replacement (Invitrogen), 2 mM GLUTAMAX™-I (Invitrogen), 0.1 mM non-essential amino acids solution (Invitrogen), 2 micromolar of the transforming growth factor 0 (TGFβ) inhibitor STEMOLECULE™ SB431542 (Stemgent®, Cambridge, Mass., USA), 0.5 micromolar of the MEK signaling pathway inhibitor STEMOLECULE™ PD0325901 (Stemgent), and/or 10 ng/ml the recombinant mouse cytokine, leukemia inhibitory factor (LIF or mLIF; Invitrogen, Carlsbad, Calif.), and 100 ng/ml basic human recombinant fibroblast growth factor (FGF; Invitrogen) with penicillin-streptomycin antibiotics. In some experiments, a lower or higher concentration of one or more of these inhibitors is used (e.g., 1-20 micromolar of the TGFβ inhibitor, 0.5-10 micromolar of the MEK signaling inhibitor, and/or 5-50 ng/ml the recombinant mouse cytokine, leukemia inhibitory factor). Since some of the molecules being inhibited may be introduced by the reagents or media used (e.g., TGFβ in the MATRIGEL™ or other extracellular matrix, the concentrations of the inhibitors used may vary based on the reagents and media used. In some experiments, the TGFβ inhibitor, MEK signaling inhibitor, and/or LIF was omitted from the feeder-free reprogramming medium. The Feeder-free Reprogramming Medium was changed daily one hour prior to each transfection with mRNA reprogramming factors. […] kit (Minis Bio LLC, Madison, Wis., USA) as described in the product literature: Briefly, a solution comprising a mixture of all of the mRNA reprogramming factors was diluted with 250 microliters of OPTI-MEM® I reduced serum medium (Invitrogen, Carlsbad, Calif.), and then 2.4 microliters of TRANSIT™ BOOST was added and mixed, followed by 2.4 microliters of the TRANSIT™ transfection reagent. In some embodiments, no inhibitor of expression of an innate immune response pathway was used. In some other embodiments, 132 ng of pseudouridine-containing mRNA encoding the B18R protein was added to the reprogramming factors comprising mRNA encoding OCT4, SOX2, KLF4, LIN28, and cMYC for reprogramming BJ fibroblasts. This transfection mix was applied dropwise to cells. Cells were then incubated at 37° C. in 5% CO2 until the next day's transfection. After 18 transfections, the medium was changed to a different “iPSC Maintenance Medium” that that was composed of DMEM/F12 supplemented with 20% KNOCKOUT™ serum replacement, 1 mM L-glutamine, 0.1 mM non-essential amino acids solution, and 100 ng/ml basic human recombinant fibroblast growth factor (FGF) (all from Invitrogen, Carlsbad, Calif.) with penicillin-streptomycin antibiotics for a few more days until iPSC colonies were big enough to pick manually. […]

O=C(NOC[C@H](O)CO)c1ccc(F)c(F)c1Nc1ccc(I)cc1F [PD0325901]
iPSC Colonies Observed (PD0325901 0 μM, 2 micromolar SB431542): 1 | iPSC Colonies Observed (PD0325901 0.5 μM, 2 micromolar SB431542): 77 | iPSC Colonies Observed (PD0325901 1 μM, 2 micromolar SB431542): 27 | iPSC Colonies Observed (PD0325901 2 μM, 2 micromolar SB431542): 94 | iPSC Colonies Observed (PD0325901 10 μM, 2 micromolar SB431542): 11 | iPSC Colonies Observed (PD0325901 15 μM, 2 micromolar SB431542): 0

NC(=O)c1ccc(-c2nc(-c3ccc4c(c3)OCO4)c(-c3ccccn3)[nH]2)cc1 [SB431542]
iPSC Colonies Observed (SB431542 0 μM, five-factor Ψ-mRNA mix daily for 17 days): 0 | iPSC Colonies Observed (SB431542 1 μM): 9 | iPSC Colonies Observed (SB431542 2 μM): 71 | iPSC Colonies Observed (SB431542 4 μM): 160

Reference: patent publication US20130189741A1, “COMPOSITIONS AND METHODS FOR REPROGRAMMING MAMMALIAN CELLS” (Cellscript, Inc., priority 2009, published 2013)
